{"source": "patent US20030215531A1", "about": "“Compositions and methods of use for extracts of Rutaceae plants” (priority 2000, published 2003)", "key": {"rats": {"tested_on": "rats", "experiment": "formalin test in rats", "assay_type": "in vivo", "description": "The analgesic effects of the extracts of this invention were studied using the formalin test (Dubuisson, D., Dennis, S. G., “The formalin test: a quantitative study of the analgesic effects of morphine, meperidine, and brainstem stimulation in rats and cats,” Pain, 1977, 4, pp. 161-164), a commonly used animal model to study nociceptive processes and analgesic drug effects.\nMale Holtzman rats weighing 150-175 g were obtained from Harlan Spraque Dawley (Indianapolis, Ind.) and housed under a 12:12 h light/dark cycle in individual stainless steel cages in a temperature and humidity controlled vivarium. Food and water were available ad libitum. In session one, the animals were allowed to acclimate to the colony room for two days and handled for an additional two days prior to conducting the experiment in order to reduce experimenter-related stress. In session two, animals were allowed to acclimate to the colony room for four days, handled for three days, and acclimated to the apparatus for two days prior to conducting the experiment in order to reduce experimenter-related stress. In both sessions, the animals were food-deprived for 12 h before administering the test articles.\nA Plexiglas viewing chamber (30×30×30 cm) was used for data collection.\nNaproxen was used as a reference. Samples were tested at a concentration of 100 mg/kg except Formulation J which was tested at 200 mg/kg.\nIn session one, 10 minutes before the formalin observation period, the formulations were delivered via gavage in a volume of 0.5 ml to obtain a minimum response interval of 30 min between the injection time and the second phase of the formalin response. In session two, formulations were delivered via gavage of 1 ml. Each animal received two formulation dosings before the tests: 70 and 10 minutes before the beginning of the formalin observation period in order to obtain a 90 and 30 min injection intervals before the second phase of the formalin response.\nImmediately after administration of 0.05 ml of 2.5% formalin into the hindpaw, rats were placed into 30×30×30 cm Plexiglas observation chamber. The observation session lasted 50 min. A dependent measure was the amount of time in which the injected paw was 1) in a lift position and 2) licked, bitten or shaken across ten 5-min blocks. A composite pain score as a function of ten 5-min blocks was calculated according to the procedures of Watson et al. (Watson, G. S., Sufka, K. J., Coderre, T. J., “Optimal scoring strategies and weights for the formalin test in rats,” Pain, 1997, 70, pp. 53-58). Sample sizes were n=5-6 rats per group. […]\nData were screened for homogeneity of variance and analyzed using repeated measures analysis of variance (ANOVA) and Fisher's LSD procedures."}, "chicks": {"tested_on": "chicks", "conditions": "previous research with this chick model (Watson et al., 1996, 1999); cited from earlier work"}}, "note": "Entries after “also recorded” stand apart in the source; their conditions may differ. Counter-ions that a name gives are not always drawn.", "data": [{"smiles": "COc1ccc2cc3[n+](cc2c1OC)CCc1cc2c(cc1-3)OCO2", "note": "[Formulation K, berberine HCl]", "values": [{"measurement": "effect on formalin-induced pain behaviors (CPS), in words", "setting": "rats; session 1, 100 mg/kg by gavage 10 min before observation, HCl, 100 mg/kg", "result": "attenuated pain-related behaviors during the second phase; also recorded: reduced pain during the fourth to the tenth time block"}]}, {"smiles": "COc1ccc2cc([C@H](C)C(=O)O)ccc2c1", "note": "[Naproxen]", "values": [{"measurement": "effect on formalin-induced pain behaviors (CPS), in words", "setting": "rats; session 1, 100 mg/kg by gavage 10 min before observation, 100 mg/kg", "result": "did not affect pain behaviors"}, {"measurement": "effect on formalin-induced pain behaviors (CPS), in words", "setting": "rats; session 1, 100 mg/kg by gavage 10 min before observation, listed as naproxen, 100 mg/kg", "result": "had no effect on pain"}, {"measurement": "effect on formalin-induced pain behaviors (CPS), in words", "setting": "rats; session 2, two gavage dosings 70 and 10 min before observation, Naproxen 100 mg, Formulation J 200 mg/kg, b186 prints 100 mg/kg", "result": "attenuated the second phase of the formalin response"}]}, {"smiles": "Cc1nnc2n1-c1ccc(Cl)cc1C(c1ccccc1)=NC2", "note": "[alprazolam]", "values": [{"measurement": "ED50 in attenuating separation-induced DVoc", "setting": "chicks", "result": 0.19, "unit": "mg/kg"}]}, {"smiles": "CNC1=Nc2ccc(Cl)cc2C(c2ccccc2)=[N+]([O-])C1", "note": "[chlorodiazepoxide, chlordiazepoxide]", "values": [{"measurement": "ED50 in attenuating separation-induced DVoc", "setting": "chicks", "result": 3.75, "unit": "mg/kg"}]}, {"smiles": "O=C1Nc2ccc(Cl)cc2C(c2ccccc2Cl)=NC1O", "note": "(stereo not shown) [lorazepam]", "values": [{"measurement": "ED50 in attenuating separation-induced DVoc", "setting": "chicks", "result": 0.34, "unit": "mg/kg"}]}]}
